Tested on: methane production in rumen fluid
Assay: Rumen in vitro (RIV) assay, methane production from rumen fluid incubations
Type: cell-based, cattle
Conditions: Bos taurus, read-out: RIV % methane reduction +/− SD
Method: The compounds of the present invention were initially screened for activity using an in vitro fully automated incubation system for the measurement of total gas production and gas composition (methane and hydrogen). The system used is described in detail in the paper by Muetzel et al. (2014; Animal Feed Science and Technology 196, 1-11). The system in this specification is referred to as the rumen in vitro system or RIV. The RIV system provides a relatively simple tool for determining the rate and production of methane and also whether the rate and production of methane is inhibited or reduced by a particular compound or feed. Rumen in vitro assays use rumen fluid from donor animals (typically either sheep or cattle) which is typically combined with a buffer and then incubated in sealed fermentation vessels at 39° C. for either 24 or 48 h. These assays systems have been well-characterised and used by the scientific community over the last two decades (Rymer et al. 2005). The system that has been used here to characterise the effects of inhibitors on methane production and gas production, and the formation of H2, was described by Muetzel et al. (2014). Rumen in vitro assay systems reflect what can occur in the rumen in vivo, but only short-term, due to their short incubation times (typically not exceeding 48 h) which is limited by its buffering capacity and the fact that it is a closed system. Stock solutions of inhibitors were re-suspended in dimethylformamide (DMF) at concentrations 1000-fold higher than the highest used for the assays. Any further dilutions were also prepared using DMF. The total amount of inhibitor solution added to the rumen fluid-buffer mixture (60 mL) was 60 μl. Incubations used 60 ml of medium containing 12 ml of filtered rumen fluid and 48 ml of buffer in serum bottles for 24-48 h, essentially as described by Muetzel et al. (2014). Two fistulated cattle were used as donor animals for rumen fluid and treatments were incubated in duplicate bottles. Sets of duplicate incubation vials that contained ryegrass (with rumen fluid-buffer mixture), and ryegrass with 30 μM bromoethanesulfonate (BES) were also incubated as negative and positive controls, respectively. One experiment consists of 2 replicates of an inhibitor at any one concentration run at the same time, and a run can contain up to 32 bottle, including positive (30 µM BES) and negative (no inhibitor added) controls. Compound 1, for example, was tested using the 60 mL rumen in vitro assay system at 50 μM, 10 μM, and 2 μM final concentrations and compared to a positive control with 30 µM BES.

Row | Compound | inhibition at 10 µM | inhibition at 50 µM | inhibition at 2 µM
1 | O=C(O)CCC(=O)N1N=C(c2ccc(OC(F)(F)F)cc2)CC1c1ccc2nccnc2c1 (stereo not drawn) [Compound 8, 4-Oxo-4-(5-(quinoxalin-6-yl)-3-(4-(trifluoromethoxy)phenyl)-4,5-dihydro-1H-pyrazol-1-yl)butanoic acid] | 22.6 ± 2.8% | 75.2 ± 1.6% | 
2 | O=C(O)CCC(=O)N1N=C(c2ccc3nccnc3c2)CC1c1ccc(Cl)cc1 (stereo not drawn) [Compound 77, 4-(5-(4-Chlorophenyl)-3-(quinoxalin-6-yl)-4,5-dihydro-1H-pyrazol-1-yl)-4-oxobutanoic acid] |  | 77 ± 0.4% | 
3 | O=C(O)CCC(=O)N1N=C(c2ccc(-c3ccc(N4CCCCC4)cc3)cc2)CC1c1ccc2nccnc2c1 (stereo not drawn) [Compound 96, 4-Oxo-4-(3-(4′-(piperidin-1-yl)-[1,1′-biphenyl]-4-yl)-5-(quinoxalin-6-yl)-4,5-dihydro-1H-pyrazol-1-yl)butanoic acid] | 8.2 ± 2.5% | 73.3 ± 12.1% | 
4 | CN(C)S(=O)(=O)NC(=O)CCC(=O)N1N=C(c2ccc(OC(F)(F)F)cc2)CC1c1ccc2nccnc2c1 (stereo not drawn) [Compound 126, N—(N,N-Dimethylsulfamoyl)-4-oxo-4-(5-(quinoxalin-6-yl)-3-(4-(trifluoromethoxy)phenyl)-4,5-dihydro-1H-pyrazol-1-yl) butanamide] | 25.5 ± 3.8% |  | 
5 | CC(C)(C)c1ccc(-c2ccc(C3=NN(C(=O)CCC(=O)O)C(c4ccc5nccnc5c4)C3)cc2)cc1 (stereo not drawn) [Compound 87, 4-(3-(4′-(tert-Butyl)-[1,1′-biphenyl]-4-yl)-5-(quinoxalin-6-yl)-4,5-dihydro-1H-pyrazol-1-yl)-4-oxobutanoic acid] | 6 ± 0.5% |  | 
6 | O=C(O)CCC(=O)N1N=C(c2ccc(-c3ccc(Cl)cc3Cl)cc2)CC1c1ccc2nccnc2c1 (stereo not drawn) [Compound 26, 4-(3-(2′,4′-Dichloro-[1,1′-biphenyl]-4-yl)-5-(quinoxalin-6-yl)-4,5-dihydro-1H-pyrazol-1-yl)-4-oxobutanoic acid] | 65.8 ± 3.7% | 96 ± 1.1% | 
7 | O=C(O)CCC(=O)N1N=C(c2ccc(-c3ccc(OC(F)F)cc3)cc2)CC1c1ccc2nccnc2c1 (stereo not drawn) [Compound 65, 4-(3-(4′-(Difluoromethoxy)-[1,1′-biphenyl]-4-yl)-5-(quinoxalin-6-yl)-4,5-dihydro-1H-pyrazol-1-yl)-4-oxobutanoic acid] | 90.2% |  | 26.2%
8 | O=C(O)CCC(=O)N1N=C(c2ccc(-c3ccc(OC(F)(F)F)cc3)cc2)CC1c1ccc2nccnc2c1 (stereo not drawn) [Compound 22, 4-Oxo-4-(5-(quinoxalin-6-yl)-3-(4′-(trifluoromethoxy)-[1,1′-biphenyl]-4-yl)-4,5-dihydro-1H-pyrazol-1-yl)butanoic acid] | 85.1 ± 0.8% | 94.7 ± 0.8% | 23.8 ± 1.1%
9 | O=C(O)CCC(=O)N1N=C(c2ccc(-c3ccccc3Cl)cc2)CC1c1ccc2nccnc2c1 (stereo not drawn) [Compound 17, 4-(3-(2′-Chloro-[1,1′-biphenyl]-4-yl)-5-(quinoxalin-6-yl)-4,5-dihydro-1H-pyrazol-1-yl)-4-oxobutanoic acid] | 74.2 ± 7.8% | 90 ± 1.2% | < 5%
10 | O=C(O)CCC(=O)N1N=C(c2ccc(-c3ccccc3)cn2)CC1c1ccc2nccnc2c1 (stereo not drawn) [Compound 29, 4-Oxo-4-(3-(5-phenylpyridin-2-yl)-5-(quinoxalin-6-yl)-4,5-dihydro-1H-pyrazol-1-yl)butanoic acid] |  | 33.3 ± 0.6% | 
11 | O=C(O)CCC(=O)N1N=C(c2ccc(-c3ccccc3)cc2)CC1c1ccc2c(c1)OCCO2 (stereo not drawn) [Compound 40, 4-(3-([1,1′-Biphenyl]-4-yl)-5-(2,3-dihydrobenzo[b][1,4]dioxin-6-yl)-4,5-dihydro-1H-pyrazol-1-yl)-4-oxobutanoic acid] | 39.8 ± 1.3% | 89.5 ± 1.4% | 
12 | O=C(O)CCC(=O)N1N=C(c2ccc(Cl)cc2Cl)CC1c1ccc2nccnc2c1 (stereo not drawn) [Compound 10, 4-(3-(2,4-Dichlorophenyl)-5-(quinoxalin-6-yl)-4,5-dihydro-1H-pyrazol-1-yl)-4-oxobutanoic acid] |  | 64 ± 0.6% | 
13 | O=C(O)CCC(=O)N1N=C(c2ccc(-c3ccc(Cl)c(Cl)c3)cc2)CC1c1ccc2nccnc2c1 (stereo not drawn) [Compound 27, 4-(3-(3′,4′-Dichloro-[1,1′-biphenyl]-4-yl)-5-(quinoxalin-6-yl)-4,5-dihydro-1H-pyrazol-1-yl)-4-oxobutanoic acid] | 48.3 ± 7.5% | 92.1 ± 1.1% | 
14 | CC(C)(C)C(=O)OCOC(=O)CCC(=O)N1N=C(c2ccc(Cl)cc2)CC1c1ccc2nccnc2c1 (stereo not drawn) [Compound 54, (Pivaloyloxy)methyl 4-(3-(4-chlorophenyl)-5-(quinoxalin-6-yl)-4,5-dihydro-1H-pyrazol-1-yl)-4-oxobutanoate] |  | 23.8 ± 9.4% | 
15 | CN(C)c1ccc(-c2ccc(C3=NN(C(=O)CCC(=O)O)C(c4ccc5nccnc5c4)C3)cc2)cc1 (stereo not drawn) [Compound 95, 4-(3-(4′-(Dimethylamino)-[1,1′-biphenyl]-4-yl)-5-(quinoxalin-6-yl)-4,5-dihydro-1H-pyrazol-1-yl)-4-oxobutanoic acid] | 68.3 ± 2.1% |  | 
16 | O=C(O)CCC(=O)N1N=C(c2ccc(-c3ccc(OC(F)(F)F)cc3F)cc2)CC1c1ccc2nccnc2c1 (stereo not drawn) [Compound 101, 4-(3-(2′-Fluoro-4′-(trifluoromethoxy)-[1,1′-biphenyl]-4-yl)-5-(quinoxalin-6-yl)-4,5-dihydro-1H-pyrazol-1-yl)-4-oxobutanoic acid] | 65.7 ± 2.9% |  | 
17 | O=C(O)CCC(=O)N1N=C(c2ccc(-c3ccccc3)cc2)CC1c1ccc2nonc2c1 (stereo not drawn) [Compound 111, 4-(3-([1,1′-Biphenyl]-4-yl)-5-(benzo[c][1,2,5]oxadiazol-5-yl)-4,5-dihydro-1H-pyrazol-1-yl)-4-oxobutanoic acid] | 43.3 ± 9% |  | 
18 | Cc1ccc(C2=NN(C(=O)CCC(=O)O)C(c3ccc4nccnc4c3)C2)cc1 (stereo not drawn) [Compound 2] |  | 13.9% | 
19 | O=C(O)CCC(=O)N1N=C(c2ccc(-c3ccc(CC(F)(F)F)cc3)cc2)CC1c1ccc2nccnc2c1 (stereo not drawn) [Compound 88, 4-Oxo-4-(5-(quinoxalin-6-yl)-3-(4′-(2,2,2-trifluoroethyl)-[1,1′-biphenyl]-4-yl)-4,5-dihydro-1H-pyrazol-1-yl)butanoic acid] | 83 ± 1.1% |  | < 5%
20 | O=C(O)CCC(=O)N1N=C(c2ccc(Cl)cc2)CC1c1ccc2c(c1)OCO2 (stereo not drawn) [Compound 37, 4-(5-(benzo[d][1,3]dioxol-5-yl)-3-(4-chlorophenyl)-4,5-dihydro-1H-pyrazol-1-yl)-4-oxobutanoic acid] |  | 15.6 ± 2% | 
21 | CS(=O)(=O)NC(=O)CCC(=O)N1N=C(c2ccc(Cl)cc2)CC1c1ccc2nccnc2c1 (stereo not drawn) [Compound 55, 4-(3-(4-Chlorophenyl)-5-(quinoxalin-6-yl)-4,5-dihydro-1-pyrazol-1-yl)-N-(methylsulfonyl)-4-oxobutanamide] | 70 ± 4.5% | 96.1 ± 0.5% | < 5%
22 | CCOc1cc(C2CC(c3ccc(Cl)cc3)=NN2C(=O)CCC(=O)O)ccc1O (stereo not drawn) [Compound 47, 4-(3-(4-Chlorophenyl)-5-(3-ethoxy-4-hydroxyphenyl)-4,5-dihydro-1H-pyrazol-1-yl)-4-oxobutanoic acid] |  | 68.3 ± 3.9% | 
23 | O=C(O)CCC(=O)N1N=C(c2ccc(-c3ccc4c(c3)OCO4)cc2)CC1c1ccc2nccnc2c1 (stereo not drawn) [Compound 103, 4-(3-(4-(Benzo[d][1,3]dioxol-5-yl)phenyl)-5-(quinoxalin-6-yl)-4,5-dihydro-1H-pyrazol-1-yl)-4-oxobutanoic acid] | 24.8 ± 6.2% |  | 
24 | CC(C)S(=O)(=O)NC(=O)CCC(=O)N1N=C(c2ccc(OC(F)(F)F)cc2)CC1c1ccc2nccnc2c1 (stereo not drawn) [Compound 118, N-(Isopropylsulfonyl)-4-oxo-4-(5-(quinoxalin-6-yl)-3-(4-(trifluoromethoxy)phenyl)-4,5-dihydro-1H-pyrazol-1-yl) butanamide] | 29.7 ± 6% |  | 
25 | O=C(O)CCC(=O)N1N=C(c2ccc(Cl)cc2)CC1c1ccc2nsnc2c1 (stereo not drawn) [Compound 36, 4-(5-(Benzo[c][1,2,5]thiadiazol-5-yl)-3-(4-chlorophenyl)-4,5-dihydro-1H-pyrazol-1-yl)-4-oxobutanoic acid] | 33.4 ± 2.3% | 91.3 ± 0.2% | 
26 | CC(C)c1ccc(-c2ccc(C3=NN(C(=O)CCC(=O)O)C(c4ccc5nccnc5c4)C3)cc2)cc1 (stereo not drawn) [Compound 24, 4-(3-(4′-Isopropyl-[1,1′-biphenyl]-4-yl)-5-(quinoxalin-6-yl)-4,5-dihydro-1H-pyrazol-1-yl)-4-oxobutanoic acid] | 94.1 ± 0.3% | 97.8 ± 0.05% | 21.8%

— patent publication US20260053171A1, “METHANOGEN INHIBITORS” (AGRIZERONZ LIMITED PARTNERSHIP, priority 2022, published 2026)
